Like-named read-outs stand apart in the source and are kept apart here.

For experiment [1], the target named is T1, human CB2 receptors (Homo sapiens, UniProt P34972).
T1 construct: expressed in transfected cells; host or cells: CHO cells
Briefly: functional cAMP assay, human CB2. Type of experiment: cell-based. As to conditions: CHO cells expressing human CB2, cAMP; read-out: human CB2 EC50. The gist of the method:
(§1)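 Compound exposure lasted 30 min at 30 °C in IBMX (1 mM)-containing Krebs Ringer bicarbonate buffer, applied to human CB1- or CB2-expressing CHO cells. Lysates were read by time-resolved FRET cAMP detection, converted via cAMP standard curve (10 μM–0.13 nM), and EC50 values calculated.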

Experiment [2] has as its target T2, human CB1 receptors (Homo sapiens, UniProt P21554).
T2 construct: expressed in transfected cells; host or cells: CHO cells
Briefly: functional cAMP assay, human CB1. In kind it is cell-based. The gist of the method: as §1
A general note: cAMP levels reflect the balance of adenylyl cyclase and phosphodiesterase activity.

[3] abbreviates: CHO cells expressing human CB1, cAMP, read-out: human CB1 EC50.

T2 sequence (P21554 whole entry): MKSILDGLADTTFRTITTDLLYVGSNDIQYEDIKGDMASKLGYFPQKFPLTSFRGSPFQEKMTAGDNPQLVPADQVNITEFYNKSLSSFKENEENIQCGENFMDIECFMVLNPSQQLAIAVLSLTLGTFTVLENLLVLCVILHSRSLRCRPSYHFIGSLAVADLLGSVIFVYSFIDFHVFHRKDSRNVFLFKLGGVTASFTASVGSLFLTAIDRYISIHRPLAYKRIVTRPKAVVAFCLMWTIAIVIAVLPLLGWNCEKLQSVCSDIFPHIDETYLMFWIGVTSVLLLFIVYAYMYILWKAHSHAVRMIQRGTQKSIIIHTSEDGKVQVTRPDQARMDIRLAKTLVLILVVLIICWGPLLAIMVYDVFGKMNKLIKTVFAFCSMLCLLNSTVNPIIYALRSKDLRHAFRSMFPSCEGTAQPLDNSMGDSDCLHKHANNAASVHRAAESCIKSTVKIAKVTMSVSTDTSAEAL
T1 sequence (P34972 whole entry): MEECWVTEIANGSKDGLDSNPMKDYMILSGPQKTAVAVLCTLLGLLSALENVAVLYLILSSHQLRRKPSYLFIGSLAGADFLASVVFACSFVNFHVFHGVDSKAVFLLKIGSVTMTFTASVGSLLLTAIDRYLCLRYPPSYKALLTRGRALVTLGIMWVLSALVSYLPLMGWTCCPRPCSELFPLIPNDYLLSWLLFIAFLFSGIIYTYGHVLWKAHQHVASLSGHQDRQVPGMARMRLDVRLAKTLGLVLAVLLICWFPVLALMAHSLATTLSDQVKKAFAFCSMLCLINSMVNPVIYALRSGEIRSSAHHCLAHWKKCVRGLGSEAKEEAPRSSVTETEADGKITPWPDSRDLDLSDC

What is called EC50 is the concentration at which the effect is half-maximal. Turning to `Cc1nonc1Cn1nnc2c(N3CC(F)(F)C(F)(F)C3)nc(C(C)(C)C)nc21` [Example 173, 5-tert-Butyl-3-(4-methyl-furazan-3-ylmethyl)-7-(3,3,4,4-tetrafluoro-pyrrolidin-1-yl)-3H-[1,2,3]triazolo[4,5-d]pyrimidine], the EC50 in experiment [1] is 0.3 nM; in experiment [2] (setting [3]) it was > 10000 nM.

On to `Cc1noc(Cn2nnc3c(N4CC(F)(F)C(F)(F)C4)nc(C(C)(C)C)nc32)n1` [Example 174, 5-tert-Butyl-3-(3-methyl-[1,2,4]oxadiazol-5-ylmethyl)-7-(3,3,4,4-tetrafluoro-pyrrolidin-1-yl)-3H-[1,2,3]triazolo[4,5-d]pyrimidine], for which the EC50 in experiment [1] is 2 nM; in experiment [2] (setting [3]) it was > 10000 nM.

Turning to `Cc1nnc(Cn2nnc3c(N4CC(F)(F)C(F)(F)C4)nc(C(C)(C)C)nc32)o1` [Example 175, 5-tert-Butyl-3-(5-methyl-[1,3,4]oxadiazol-2-ylmethyl)-7-(3,3,4,4-tetrafluoro-pyrrolidin-1-yl)-3H-[1,2,3]triazolo[4,5-d]pyrimidine], the EC50 in experiment [1] is 1.5 nM; in experiment [2] (setting [3]) it was > 10000 nM.

As to `Cn1nnnc1Cn1nnc2c(N3CC(F)(F)C(F)(F)C3)nc(C(C)(C)C)nc21` [Example 176, 5-tert-Butyl-3-(1-methyl-1H-tetrazol-5-ylmethyl)-7-(3,3,4,4-tetrafluoro-pyrrolidin-1-yl)-3H-[1,2,3]triazolo[4,5-d]pyrimidine], the EC50 in experiment [1] is 0.5 nM; in experiment [2] (setting [3]), 2000 nM.

For `Cc1nnc(Cn2nnc3c(N4CC(F)(F)C(F)(F)C4)nc(C(C)(C)C)nc32)n1C` [Example 177, 5-tert-Butyl-3-(4,5-dimethyl-4H-[1,2,4]triazol-3-ylmethyl)-7-(3,3,4,4-tetrafluoro-pyrrolidin-1-yl)-3H-[1,2,3]triazolo[4,5-d]pyrimidine], the EC50 in experiment [1] is 1.1 nM; in experiment [2] (setting [3]) it was > 10000 nM.

On to `Cn1nncc1Cn1nnc2c(N3CC(F)(F)C(F)(F)C3)nc(C(C)(C)C)nc21` [Example 178, 5-tert-Butyl-3-(3-methyl-3H-[1,2,3]triazol-4-ylmethyl)-7-(3,3,4,4-tetrafluoro-pyrrolidin-1-yl)-3H-[1,2,3]triazolo[4,5-d]pyrimidine], for which the EC50 is 0.9 nM in experiment [1] and 1890 nM in experiment [2] (setting [3]).

In the case of `Cc1nonc1Cn1nnc2c(N3CC4(COC4)C3)nc(C(C)(C)C)nc21` [Example 179, 5-tert-Butyl-3-(4-methyl-furazan-3-ylmethyl)-7-(2-oxa-6-aza-spiro[3.3]hept-6-yl)-3H-[1,2,3]triazolo[4,5-d]pyrimidine], the EC50 in experiment [1] was 2 nM; in experiment [2] (setting [3]), > 10000 nM.

In the case of `Cc1noc(Cn2nnc3c(N4CC5(COC5)C4)nc(C(C)(C)C)nc32)n1` [Example 180, 5-tert-Butyl-3-(3-methyl-[1,2,4]oxadiazol-5-ylmethyl)-7-(2-oxa-6-aza-spiro[3.3]hept-6-yl)-3H-[1,2,3]triazolo[4,5-d]pyrimidine], the results for the EC50 in experiment [1] and in experiment [2] (setting [3]) were 52.8 nM and > 10000 nM, respectively.

Regarding `Cc1nnc(Cn2nnc3c(N4CC5(COC5)C4)nc(C(C)(C)C)nc32)o1` [Example 181, 5-tert-Butyl-3-(5-methyl-[1,3,4]oxadiazol-2-ylmethyl)-7-(2-oxa-6-aza-spiro[3.3]hept-6-yl)-3H-[1,2,3]triazolo[4,5-d]pyrimidine], the EC50 is 59.4 nM in experiment [1] and > 10000 nM in experiment [2] (setting [3]).

For the compound `Cn1nnnc1Cn1nnc2c(N3CC4(COC4)C3)nc(C(C)(C)C)nc21` [Example 182, 5-tert-Butyl-3-(1-methyl-1H-tetrazol-5-ylmethyl)-7-(2-oxa-6-aza-spiro[3.3]hept-6-yl)-3H-[1,2,3]triazolo[4,5-d]pyrimidine], the values for the EC50 in experiment [1] and in experiment [2] (setting [3]) were 13.9 nM and > 10000 nM, respectively.

Turning to `CC(C)(C)c1nc(N2CC3(COC3)C2)c2nnn(Cc3nnnn3C3CC3)c2n1` [Example 183, 5-tert-Butyl-3-(1-cyclopropyl-1H-tetrazol-5-ylmethyl)-7-(2-oxa-6-aza-spiro[3.3]hept-6-yl)-3H-[1,2,3]triazolo[4,5-d]pyrimidine], the EC50 in experiment [1] was 4.2 nM; in experiment [2] (setting [3]) it was > 10000 nM.

Take `Cc1nnc(Cn2nnc3c(N4CC5(COC5)C4)nc(C(C)(C)C)nc32)n1C` [Example 184, 5-tert-Butyl-3-(4,5-dimethyl-4H-[1,2,4]triazol-3-ylmethyl)-7-(2-oxa-6-aza-spiro[3.3]hept-6-yl)-3H-[1,2,3]triazolo[4,5-d]pyrimidine]: the EC50 in experiment [1] was 112 nM; in experiment [2], > 10000 nM.

Take `Cn1nncc1Cn1nnc2c(N3CC4(COC4)C3)nc(C(C)(C)C)nc21` [Example 185, 5-tert-Butyl-3-(3-methyl-3H-[1,2,3]triazol-4-ylmethyl)-7-(2-oxa-6-aza-spiro[3.3]hept-6-yl)-3H-[1,2,3]triazolo[4,5-d]pyrimidine]: the EC50 in experiment [1] is 26.8 nM; in experiment [2] (setting [3]) it was > 10000 nM.

As to `CC(C)(C)c1nc(N2CC3(COC3)C2)c2nnn(Cc3ccccc3S(C)(=O)=O)c2n1` [Example 186, 5-tert-Butyl-3-(2-methanesulfonyl-benzyl)-7-(2-oxa-6-aza-spiro[3.3]hept-6-yl)-3H-[1,2,3]triazolo[4,5-d]pyrimidine], the EC50 in experiment [1] stood at 0.3 nM; in experiment [2] (setting [3]), 137 nM.

Regarding `CC(C)(C)c1nc(N2CC3(COC3)C2)c2nnn(Cc3ncccc3Cl)c2n1` [Example 187, 5-tert-Butyl-3-(3-chloro-pyridin-2-ylmethyl)-7-(2-oxa-6-aza-spiro[3.3]hept-6-yl)-3H-[1,2,3]triazolo[4,5-d]pyrimidine], the EC50 in experiment [1] was determined as 0.8 nM; in experiment [2] (setting [3]), 119 nM.

In the case of `CC(C)(C)c1nc(N2CCC(=O)C2)c2nnn(Cc3ccccc3Cl)c2n1` [Example 188, 1-[5-tert-Butyl-3-(2-chloro-benzyl)-3H-[1,2,3]triazolo[4,5-d]pyrimidin-7-yl]-pyrrolidin-3-one], the EC50 is 1 nM in experiment [1] and > 10000 nM in experiment [2] (setting [3]).

As for `CC1(C)CCN(c2nc(C(C)(C)C)nc3c2nnn3Cc2ccccc2Cl)C1` [Example 189, 5-tert-Butyl-3-(2-chloro-benzyl)-7-(3,3-dimethyl-pyrrolidin-1-yl)-3H-[1,2,3]triazolo[4,5-d]pyrimidine], the EC50 in experiment [1] is 33.2 nM; in experiment [2] (setting [3]) it was > 10000 nM.

For `CNC1CCN(c2nc(C(C)(C)C)nc3c2nnn3Cc2ccccc2Cl)C1` (centres unmarked) [Example 190, {1-[5-tert-Butyl-3-(2-chloro-benzyl)-3H-[1,2,3]triazolo[4,5-d]pyrimidin-7-yl]-pyrrolidin-3-yl}-methyl-amine], the results for the EC50 in experiment [1] and in experiment [2] (setting [3]) were 72.6 nM and > 10000 nM, respectively.

Regarding `CN(C)C1CCN(c2nc(C(C)(C)C)nc3c2nnn3Cc2ccccc2Cl)C1` (centres unmarked) [Example 191, {1-[5-tert-Butyl-3-(2-chloro-benzyl)-3H-[1,2,3]triazolo[4,5-d]pyrimidin-7-yl]-pyrrolidin-3-yl}-dimethyl-amine], the concentration for a half-maximal effect (EC50) in experiment [1] is 173 nM; in experiment [2], > 10000 nM.

Regarding `CC(=O)N[C@H]1CCN(c2nc(C(C)(C)C)nc3c2nnn3Cc2ccccc2Cl)C1` [Example 192, N-{(S)-1-[5-tert-Butyl-3-(2-chloro-benzyl)-3H-[1,2,3]triazolo[4,5-d]pyrimidin-7-yl]-pyrrolidin-3-yl}-acetamide], the EC50 is 22 nM in experiment [1] and > 10000 nM in experiment [2] (setting [3]).

As for `CC(=O)N[C@@H]1CCN(c2nc(C(C)(C)C)nc3c2nnn3Cc2ccccc2Cl)C1` [Example 193, N-{(R)-1-[5-tert-Butyl-3-(2-chloro-benzyl)-3H-[1,2,3]triazolo[4,5-d]pyrimidin-7-yl]-pyrrolidin-3-yl}-acetamide], the EC50 was 593 nM in experiment [1] and > 10000 nM in experiment [2] (setting [3]).

As to `CC(=O)N(C)C1CCN(c2nc(C(C)(C)C)nc3c2nnn3Cc2ccccc2Cl)C1` (centres unmarked) [Example 194, N-{1-[5-tert-Butyl-3-(2-chloro-benzyl)-3H-[1,2,3]triazolo[4,5-d]pyrimidin-7-yl]-pyrrolidin-3-yl}-N-methyl-acetamide], the figures for the EC50 in experiment [1] and in experiment [2] were 285 nM and > 10000 nM, respectively.

For `CC(C)(C)c1nc(N2CCC(c3ccccc3)C2)c2nnn(Cc3ccccc3Cl)c2n1` (centres unmarked) [Example 195, 5-tert-Butyl-3-(2-chloro-benzyl)-7-(3-phenyl-pyrrolidin-1-yl)-3H-[1,2,3]triazolo[4,5-d]pyrimidine], the EC50 is 467 nM in experiment [1] and > 10000 nM in experiment [2].

As to `CCN(C(C)=O)C1CCN(c2nc(C(C)(C)C)nc3c2nnn3Cc2ccccc2Cl)C1` (centres unmarked) [Example 196, N-{1-[5-tert-Butyl-3-(2-chloro-benzyl)-3H-[1,2,3]triazolo[4,5-d]pyrimidin-7-yl]-pyrrolidin-3-yl}-N-ethyl-acetamide], the EC50 in experiment [1] was 119 nM; in experiment [2], > 10000 nM.

As for `COC(=O)C1CN(c2nc(C(C)(C)C)nc3c2nnn3Cc2ccccc2Cl)C1` [Example 197, 1-[5-tert-Butyl-3-(2-chloro-benzyl)-3H-[1,2,3]triazolo[4,5-d]pyrimidin-7-yl]-azetidine-3-carboxylic acid methyl ester], the EC50 in experiment [1] is 257 nM; in experiment [2], > 10000 nM.

Regarding `CC1CCN(c2nc(C(C)(C)C)nc3c2nnn3Cc2ccccc2Cl)C1` (centres unmarked) [Example 198, 5-tert-Butyl-3-(2-chloro-benzyl)-7-(3-methyl-pyrrolidin-1-yl)-3H-[1,2,3]triazolo[4,5-d]pyrimidine], the EC50 is 12.8 nM in experiment [1] and 1710 nM in experiment [2] (setting [3]).

As for `CC(C)(C)c1nc(N2CCC[C@H]2CN)c2nnn(Cc3ccccc3Cl)c2n1` [Example 199, C-{(S)-1-[5-tert-Butyl-3-(2-chloro-benzyl)-3H-[1,2,3]triazolo[4,5-d]pyrimidin-7-yl]-pyrrolidin-2-yl}-methylamine], the EC50 in experiment [1] is 183 nM; in experiment [2], > 10000 nM.

`Cn1ccc(C2CCCN2c2nc(C(C)(C)C)nc3c2nnn3Cc2ccccc2Cl)n1` (centres unmarked) [Example 200, 5-tert-Butyl-3-(2-chloro-benzyl)-7-[2-(1-methyl-1H-pyrazol-3-yl)-pyrrolidin-1-yl]-3H-[1,2,3]triazolo[4,5-d]pyrimidine]: the EC50 in experiment [1] is 178 nM; in experiment [2] it was > 10000 nM.

These data come from US8741906B2 (priority 2011, dated 2014).
